Data from paper PMC11850817 (Scientific Reports, 2025).
Like-named read-outs stand apart in the source and are kept apart here.

Legend:
MCF-7 = test: MTT antiproliferative assay, MCF-7; format: cell-based, human; details: read-out: IC50 MCF-7
AsPC-1 = test: MTT antiproliferative assay, AsPC-1; format: cell-based, human; details: read-out: IC50 AsPC-1
EBC-1 = test: MTT antiproliferative assay, EBC-1; format: cell-based, human; details: read-out: IC50 EBC-1
HT-29 = test: MTT antiproliferative assay, HT-29; format: cell-based, human; details: read-out: IC50 HT-29
NIH3T3 = test: MTT assay, NIH3T3 non-cancer cell line; format: cell-based; details: read-out: IC50 NIH3T3
Mia-Paca-2 = test: MTT antiproliferative assay, Mia-Paca-2; format: cell-based, human; details: read-out: IC50 Mia-Paca-2
[1] = tested on: EBC-1, AsPC-1, Mia-Paca-2, HT-29, MCF-7 cancer cells; test: MTT antiproliferative assay, cancer cell lines summarised; format: cell-based, human; details: MTT
MET = MET (Homo sapiens, UniProt P08581); test: Radiometric kinase assay; format: biochemical; details: read-out: Kinase inhibition (%) MET
KDR (VEGFR2) = KDR (VEGFR2) (Homo sapiens, UniProt P35968); test: Radiometric kinase assay; format: biochemical; details: read-out: Kinase inhibition (%) KDR (VEGFR2)
PDGFRA (PDGFRα) = PDGFRA (PDGFRα) (Homo sapiens, UniProt P16234); test: Radiometric kinase assay; format: biochemical; details: for inhibition at 10 µM: read-out: Kinase inhibition (%) PDGFRA (PDGFRα)
FLT3 = FLT3 (Homo sapiens, UniProt P36888); test: Radiometric kinase assay; format: biochemical; details: read-out: Kinase inhibition (%) FLT3
CDK2/cyclin A = CDK2/cyclin A (Homo sapiens, UniProt P24941); test: Radiometric kinase assay; format: biochemical; details: for inhibition at 10 µM: read-out: Kinase inhibition (%) CDK2/cyclin A
FLT4 (VEGFR3) = FLT4 (VEGFR3) (Homo sapiens, UniProt P35916); test: Radiometric kinase assay; format: biochemical; details: for inhibition at 10 µM: read-out: Kinase inhibition (%) FLT4 (VEGFR3)
NTRK1 (TrkA) = NTRK1 (TrkA) (Homo sapiens, UniProt P04629); test: Radiometric kinase assay; format: biochemical; details: read-out: Kinase inhibition (%) NTRK1 (TrkA)
AXL = biological target: T1, AXL (Homo sapiens, UniProt P30530); test: Radiometric kinase assay; format: biochemical; details: read-out: Kinase inhibition (%) AXL
T1 sequence (P30530 26-894): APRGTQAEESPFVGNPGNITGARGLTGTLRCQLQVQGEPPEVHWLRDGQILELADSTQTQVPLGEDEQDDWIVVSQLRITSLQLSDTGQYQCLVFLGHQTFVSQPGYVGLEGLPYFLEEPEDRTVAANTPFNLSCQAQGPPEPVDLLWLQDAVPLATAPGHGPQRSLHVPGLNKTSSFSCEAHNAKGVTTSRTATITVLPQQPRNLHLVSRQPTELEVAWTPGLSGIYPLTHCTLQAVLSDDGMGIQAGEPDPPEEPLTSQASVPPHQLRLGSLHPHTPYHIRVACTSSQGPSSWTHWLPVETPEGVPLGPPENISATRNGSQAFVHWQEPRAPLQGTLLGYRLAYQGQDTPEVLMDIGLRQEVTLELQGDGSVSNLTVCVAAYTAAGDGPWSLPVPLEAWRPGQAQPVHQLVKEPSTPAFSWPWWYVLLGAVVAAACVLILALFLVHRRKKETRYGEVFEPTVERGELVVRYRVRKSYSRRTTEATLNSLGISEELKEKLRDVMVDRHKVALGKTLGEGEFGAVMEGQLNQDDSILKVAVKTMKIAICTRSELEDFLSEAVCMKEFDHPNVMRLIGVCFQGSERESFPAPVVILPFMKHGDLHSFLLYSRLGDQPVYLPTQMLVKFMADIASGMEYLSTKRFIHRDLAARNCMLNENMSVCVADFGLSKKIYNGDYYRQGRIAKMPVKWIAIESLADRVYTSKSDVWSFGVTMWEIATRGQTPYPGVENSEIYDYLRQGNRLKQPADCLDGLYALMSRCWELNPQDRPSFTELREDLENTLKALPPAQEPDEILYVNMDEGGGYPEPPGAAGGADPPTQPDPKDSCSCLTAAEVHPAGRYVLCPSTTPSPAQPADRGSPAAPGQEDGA

FLT1 (VEGFR1) = FLT1 (VEGFR1) (Homo sapiens, UniProt P17948); test: Radiometric kinase assay; format: biochemical; details: read-out: Kinase inhibition (%) FLT1 (VEGFR1)
PDGFRB (PDGFRβ) = PDGFRB (PDGFRβ) (Homo sapiens, UniProt P09619); test: Radiometric kinase assay; format: biochemical; details: read-out: Kinase inhibition (%) PDGFRB (PDGFRβ)
AsPC-1 cells [2] = test: Cell cycle test, RNase/PI flow cytometry; format: cell-based, human; details: AsPC-1, 3, 10, 30, 50 µM, 48 h
AsPC-1 cells [3] = test: Apoptosis by Hoechst 33,258 staining; format: cell-based, human; details: AsPC-1, 10 and 30 µM, 48 h
NTRK2 (TrkB) = NTRK2 (TrkB) (Homo sapiens, UniProt Q16620); test: Radiometric kinase assay; format: biochemical; details: read-out: Kinase inhibition (%) NTRK2 (TrkB)
[4] = MTT, 72 h, mean ± S.E.M. of 3–5 experiments

Sequence of PDGFRA (PDGFRα) (P16234 24-1089): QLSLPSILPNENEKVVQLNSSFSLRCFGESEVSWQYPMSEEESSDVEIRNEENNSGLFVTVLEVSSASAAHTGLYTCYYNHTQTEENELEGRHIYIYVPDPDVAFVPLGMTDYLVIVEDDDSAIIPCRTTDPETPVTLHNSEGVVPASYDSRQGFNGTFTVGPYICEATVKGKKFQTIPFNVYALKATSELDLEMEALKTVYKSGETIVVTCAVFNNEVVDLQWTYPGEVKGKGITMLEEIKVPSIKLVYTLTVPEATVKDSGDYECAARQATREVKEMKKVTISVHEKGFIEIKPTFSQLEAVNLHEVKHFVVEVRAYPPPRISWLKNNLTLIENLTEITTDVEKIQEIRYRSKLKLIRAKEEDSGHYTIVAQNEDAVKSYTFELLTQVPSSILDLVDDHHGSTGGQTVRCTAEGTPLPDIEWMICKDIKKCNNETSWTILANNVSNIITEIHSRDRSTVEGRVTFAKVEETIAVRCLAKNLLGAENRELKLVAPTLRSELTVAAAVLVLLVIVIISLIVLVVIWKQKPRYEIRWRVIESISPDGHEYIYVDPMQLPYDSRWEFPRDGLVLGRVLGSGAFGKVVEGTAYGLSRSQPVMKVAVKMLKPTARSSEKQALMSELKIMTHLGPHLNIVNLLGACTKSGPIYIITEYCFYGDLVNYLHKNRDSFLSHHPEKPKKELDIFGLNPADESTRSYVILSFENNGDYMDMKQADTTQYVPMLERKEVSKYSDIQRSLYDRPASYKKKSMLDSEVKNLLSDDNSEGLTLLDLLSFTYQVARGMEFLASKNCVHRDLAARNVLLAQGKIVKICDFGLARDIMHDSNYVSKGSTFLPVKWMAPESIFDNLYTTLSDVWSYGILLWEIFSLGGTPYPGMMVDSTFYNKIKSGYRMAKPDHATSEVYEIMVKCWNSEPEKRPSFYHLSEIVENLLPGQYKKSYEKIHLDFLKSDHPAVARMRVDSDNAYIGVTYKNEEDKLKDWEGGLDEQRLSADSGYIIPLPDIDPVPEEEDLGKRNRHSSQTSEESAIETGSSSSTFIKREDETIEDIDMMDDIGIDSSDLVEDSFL
Sequence of FLT4 (VEGFR3) (P35916 25-1363): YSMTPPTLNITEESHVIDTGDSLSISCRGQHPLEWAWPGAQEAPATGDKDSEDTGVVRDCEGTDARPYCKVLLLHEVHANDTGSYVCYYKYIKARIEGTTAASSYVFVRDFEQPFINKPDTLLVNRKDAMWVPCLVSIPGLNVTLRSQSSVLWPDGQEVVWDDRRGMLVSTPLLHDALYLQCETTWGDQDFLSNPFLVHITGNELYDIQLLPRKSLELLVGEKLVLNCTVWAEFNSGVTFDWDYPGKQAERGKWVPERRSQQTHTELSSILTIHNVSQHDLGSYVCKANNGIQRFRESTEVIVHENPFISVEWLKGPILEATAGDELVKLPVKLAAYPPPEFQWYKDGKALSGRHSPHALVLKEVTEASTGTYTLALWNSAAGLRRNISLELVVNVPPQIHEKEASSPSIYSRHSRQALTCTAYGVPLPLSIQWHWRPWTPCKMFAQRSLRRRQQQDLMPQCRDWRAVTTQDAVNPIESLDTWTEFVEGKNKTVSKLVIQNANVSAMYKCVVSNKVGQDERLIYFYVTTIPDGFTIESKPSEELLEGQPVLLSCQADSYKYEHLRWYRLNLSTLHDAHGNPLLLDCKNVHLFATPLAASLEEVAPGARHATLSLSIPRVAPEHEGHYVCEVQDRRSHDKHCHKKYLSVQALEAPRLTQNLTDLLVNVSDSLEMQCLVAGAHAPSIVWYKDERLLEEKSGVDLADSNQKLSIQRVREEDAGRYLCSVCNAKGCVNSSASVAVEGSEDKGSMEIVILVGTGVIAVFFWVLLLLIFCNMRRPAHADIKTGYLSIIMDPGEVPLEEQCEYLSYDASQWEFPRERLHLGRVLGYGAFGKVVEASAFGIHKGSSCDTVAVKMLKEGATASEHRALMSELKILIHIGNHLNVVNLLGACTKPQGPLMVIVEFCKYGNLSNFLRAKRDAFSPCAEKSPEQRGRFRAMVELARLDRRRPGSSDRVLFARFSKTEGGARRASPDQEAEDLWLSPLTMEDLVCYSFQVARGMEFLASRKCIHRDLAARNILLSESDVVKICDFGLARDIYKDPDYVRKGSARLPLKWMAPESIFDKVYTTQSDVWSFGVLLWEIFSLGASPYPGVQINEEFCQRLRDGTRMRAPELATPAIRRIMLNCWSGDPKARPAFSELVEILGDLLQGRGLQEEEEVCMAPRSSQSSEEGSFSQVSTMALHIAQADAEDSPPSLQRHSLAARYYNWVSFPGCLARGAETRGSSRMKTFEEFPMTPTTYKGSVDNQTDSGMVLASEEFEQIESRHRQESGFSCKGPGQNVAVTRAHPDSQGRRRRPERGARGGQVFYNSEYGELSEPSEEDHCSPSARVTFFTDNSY
Sequence of MET (P08581 25-1390): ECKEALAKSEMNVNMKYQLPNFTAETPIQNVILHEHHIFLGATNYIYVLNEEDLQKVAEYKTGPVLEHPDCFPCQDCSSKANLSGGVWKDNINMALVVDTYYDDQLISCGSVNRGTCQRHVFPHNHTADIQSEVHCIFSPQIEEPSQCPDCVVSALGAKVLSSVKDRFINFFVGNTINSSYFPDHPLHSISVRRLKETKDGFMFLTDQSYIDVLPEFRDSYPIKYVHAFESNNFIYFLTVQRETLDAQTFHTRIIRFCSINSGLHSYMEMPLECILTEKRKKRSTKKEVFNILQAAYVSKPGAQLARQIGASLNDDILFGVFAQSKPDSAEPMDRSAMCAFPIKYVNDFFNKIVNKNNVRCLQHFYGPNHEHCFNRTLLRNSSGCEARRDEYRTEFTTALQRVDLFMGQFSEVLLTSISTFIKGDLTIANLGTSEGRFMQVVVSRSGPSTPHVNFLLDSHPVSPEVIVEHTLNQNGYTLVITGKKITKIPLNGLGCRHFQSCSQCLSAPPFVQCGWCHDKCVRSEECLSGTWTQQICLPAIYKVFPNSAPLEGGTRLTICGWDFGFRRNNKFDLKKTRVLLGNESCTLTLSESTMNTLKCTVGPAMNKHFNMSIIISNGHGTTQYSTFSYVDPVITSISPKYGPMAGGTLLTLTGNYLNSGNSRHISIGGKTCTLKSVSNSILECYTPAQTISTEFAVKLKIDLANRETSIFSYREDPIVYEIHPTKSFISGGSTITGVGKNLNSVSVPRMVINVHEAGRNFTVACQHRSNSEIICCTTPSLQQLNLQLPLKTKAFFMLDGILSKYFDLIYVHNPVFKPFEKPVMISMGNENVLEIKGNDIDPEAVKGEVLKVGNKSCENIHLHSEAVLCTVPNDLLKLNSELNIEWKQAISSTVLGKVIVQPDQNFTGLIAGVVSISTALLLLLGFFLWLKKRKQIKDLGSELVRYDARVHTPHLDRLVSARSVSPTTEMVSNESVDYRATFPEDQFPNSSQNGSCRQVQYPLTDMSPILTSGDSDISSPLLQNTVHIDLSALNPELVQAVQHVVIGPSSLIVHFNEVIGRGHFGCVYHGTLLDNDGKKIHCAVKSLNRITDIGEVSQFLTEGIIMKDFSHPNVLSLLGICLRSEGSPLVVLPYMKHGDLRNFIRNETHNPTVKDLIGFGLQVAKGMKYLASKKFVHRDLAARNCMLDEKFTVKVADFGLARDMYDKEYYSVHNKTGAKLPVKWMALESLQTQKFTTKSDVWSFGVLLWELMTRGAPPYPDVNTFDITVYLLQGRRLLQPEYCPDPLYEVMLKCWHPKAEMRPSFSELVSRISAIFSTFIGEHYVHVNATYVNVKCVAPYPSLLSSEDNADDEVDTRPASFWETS
Sequence of KDR (VEGFR2) (P35968 20-1356): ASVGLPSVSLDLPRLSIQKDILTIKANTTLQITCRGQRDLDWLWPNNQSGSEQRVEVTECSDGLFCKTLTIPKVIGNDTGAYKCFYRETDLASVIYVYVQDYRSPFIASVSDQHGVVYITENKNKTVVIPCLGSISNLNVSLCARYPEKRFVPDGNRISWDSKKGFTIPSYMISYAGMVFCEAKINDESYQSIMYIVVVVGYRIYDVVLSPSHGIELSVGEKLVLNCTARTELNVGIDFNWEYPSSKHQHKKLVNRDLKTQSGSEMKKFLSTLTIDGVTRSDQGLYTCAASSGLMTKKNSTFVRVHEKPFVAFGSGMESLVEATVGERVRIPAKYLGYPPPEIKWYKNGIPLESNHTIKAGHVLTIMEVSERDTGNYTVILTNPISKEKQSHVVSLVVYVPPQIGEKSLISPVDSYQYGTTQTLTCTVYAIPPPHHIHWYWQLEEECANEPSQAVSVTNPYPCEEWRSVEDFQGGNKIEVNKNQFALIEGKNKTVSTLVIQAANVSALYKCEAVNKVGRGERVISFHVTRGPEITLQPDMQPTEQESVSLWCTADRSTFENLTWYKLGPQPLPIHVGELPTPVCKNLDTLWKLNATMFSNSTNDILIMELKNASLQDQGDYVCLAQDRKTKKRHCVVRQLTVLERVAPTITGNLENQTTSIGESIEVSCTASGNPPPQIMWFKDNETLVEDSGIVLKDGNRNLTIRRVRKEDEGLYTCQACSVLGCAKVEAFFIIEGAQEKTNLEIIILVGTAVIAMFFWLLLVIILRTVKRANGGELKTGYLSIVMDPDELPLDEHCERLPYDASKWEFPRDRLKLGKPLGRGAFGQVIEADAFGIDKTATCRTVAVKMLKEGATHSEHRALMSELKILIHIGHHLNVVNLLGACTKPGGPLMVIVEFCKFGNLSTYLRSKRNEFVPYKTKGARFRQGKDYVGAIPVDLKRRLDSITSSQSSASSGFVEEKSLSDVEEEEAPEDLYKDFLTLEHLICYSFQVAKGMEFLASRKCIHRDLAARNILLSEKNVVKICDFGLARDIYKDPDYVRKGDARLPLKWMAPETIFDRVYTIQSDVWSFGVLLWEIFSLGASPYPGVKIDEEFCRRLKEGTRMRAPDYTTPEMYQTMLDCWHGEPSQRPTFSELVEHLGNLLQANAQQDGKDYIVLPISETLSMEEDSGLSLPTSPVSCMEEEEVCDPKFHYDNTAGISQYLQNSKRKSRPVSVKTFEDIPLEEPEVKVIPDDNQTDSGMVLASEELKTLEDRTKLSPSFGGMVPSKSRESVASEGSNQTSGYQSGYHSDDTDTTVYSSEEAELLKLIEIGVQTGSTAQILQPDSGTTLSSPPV

O=C1C=C(Nc2ccc(OCc3cn(Cc4cccc(Cl)c4)nn3)cc2)C(=O)c2ccccc21 [Compound 4f, 2-((4-((1-(3-Chlorobenzyl)−1H-1,2,3-triazol-4-yl)methoxy)phenyl)amino) naphthalene-1,4-dione]
IC50 (MCF-7; Homo sapiens, MCF7, 72 h): > 100 µM | IC50 (AsPC-1; Homo sapiens, ASPC1, 72 h): 10.5 ± 2.6 µM | IC50 (EBC-1; Homo sapiens, EBC-1, 72 h): 2.3 ± 0.4 µM | IC50 (HT-29; Homo sapiens, HT-29, 72 h): 1.9 ± 0.4 µM | IC50 (NIH3T3; Mus musculus, NIH3T3, 72 h): 29.8 ± 7.3 µM | IC50 (Mia-Paca-2; Homo sapiens, MIA PaCa-2, 72 h): 42.1 ± 12.6 µM

O=C1C=C(Nc2ccc(OCc3cn(Cc4ccc(Cl)cc4)nn3)cc2)C(=O)c2ccccc21 [Compound 4d, 2-((4-((1-(4-Chlorobenzyl)−1H-1,2,3-triazol-4-yl)methoxy)phenyl)amino) naphthalene-1,4-dione]
IC50 (MCF-7; Homo sapiens, MCF7, 72 h): 15.9 ± 4.6 µM | IC50 (AsPC-1; Homo sapiens, ASPC1, 72 h): 20.8 ± 6.8 µM | IC50 (EBC-1; Homo sapiens, EBC-1, 72 h): 1.9 ± 0.3 µM | IC50 (HT-29; Homo sapiens, HT-29, 72 h): 3.1 ± 0.4 µM | IC50 (NIH3T3; Mus musculus, NIH3T3, 72 h): 14.4 ± 1.9 µM | IC50 (Mia-Paca-2; Homo sapiens, MIA PaCa-2, 72 h): 21.3 ± 3.6 µM

COc1cc2nccc(Oc3ccc(NC(=O)C4(C(=O)Nc5ccc(F)cc5)CC4)cc3)c2cc1OC [Cabozantinib, reference compound]
IC50 (MCF-7; Homo sapiens, MCF7, 72 h): 17.8 ± 2.4 µM | IC50 (AsPC-1; Homo sapiens, ASPC1, 72 h): 21.3 ± 2.03 µM | IC50 (EBC-1; Homo sapiens, EBC-1, 72 h): 0.06 ± 0.01 µM | IC50 (HT-29; Homo sapiens, HT-29, 72 h): 3.7 ± 0.4 µM | IC50 (Mia-Paca-2; Homo sapiens, MIA PaCa-2, 72 h): 7.4 ± 0.6 µM

COc1cccc2c1C(=O)c1c(O)c3c(c(O)c1C2=O)C[C@@](O)(C(=O)CO)C[C@@H]3O[C@H]1C[C@H](N)[C@H](O)[C@H](C)O1 [Doxorubicin, reference compound]
IC50 (MCF-7; Homo sapiens, MCF7, 72 h): 0.137 ± 0.0063 µM | IC50 (AsPC-1; Homo sapiens, ASPC1, 72 h): 1.73 ± 0.2 µM | IC50 (EBC-1; Homo sapiens, EBC-1, 72 h): 0.5 ± 0.1 µM | IC50 (HT-29; Homo sapiens, HT-29, 72 h): 0.6 ± 0.2 µM | IC50 (NIH3T3; Mus musculus, NIH3T3, 72 h): 0.013 ± 0.0021 µM | IC50 (Mia-Paca-2; Homo sapiens, MIA PaCa-2, 72 h): 0.0881 ± 0.0526 µM

O=C1C=C(Nc2ccc(OCc3cn(CCN4C(=O)c5ccccc5C4=O)nn3)cc2)C(=O)c2ccccc21 [Compound 4j, 2-(2-(4-((4-((1,4-Dioxo-1,4-dihydronaphthalen-2-yl)amino)phenoxy)methyl)−1H-1,2,3-triazol-1-yl)ethyl)isoindoline-1,3-dione]
IC50 (MCF-7; Homo sapiens, MCF7, 72 h): > 100 µM | IC50 (AsPC-1; Homo sapiens, ASPC1, 72 h): > 100 µM | IC50 (EBC-1; Homo sapiens, EBC-1, 72 h): > 50 µM | IC50 (HT-29; Homo sapiens, HT-29, 72 h): > 50 µM | Antiproliferative activity against cancer cell lines (in words) [1]: devoid of any antiproliferative potential against all cancer cells | IC50 (Mia-Paca-2; Homo sapiens, MIA PaCa-2, 72 h): > 100 µM

O=C1C=C(Nc2ccc(OCc3cn(Cc4ccc(F)cc4)nn3)cc2)C(=O)c2ccccc21 [Compound 4c, 2-((4-((1-(4-Fluorobenzyl)−1H-1,2,3-triazol-4-yl)methoxy)phenyl)amino) naphthalene-1,4-dione]
IC50 (MCF-7; Homo sapiens, MCF7, 72 h): 26.9 ± 0.2 µM | IC50 (AsPC-1; Homo sapiens, ASPC1, 72 h): 34.8 ± 15.3 µM | IC50 (EBC-1; Homo sapiens, EBC-1, 72 h): 13.7 ± 3.3 µM | IC50 (HT-29; Homo sapiens, HT-29, 72 h): > 100 µM | IC50 (NIH3T3; Mus musculus, NIH3T3, 72 h): 20.1 ± 3.3 µM | IC50 (Mia-Paca-2; Homo sapiens, MIA PaCa-2, 72 h): 61 ± 6.6 µM

CC(C)(C)c1ccc(Cn2cc(COc3ccc(NC4=CC(=O)c5ccccc5C4=O)cc3)nn2)cc1 [Compound 4 h, 2-((4-((1-(4-(Tert-butyl)benzyl)−1H-1,2,3-triazol-4yl)methoxy)phenyl)amino) naphthalene-1,4-dione]
IC50 (MCF-7; Homo sapiens, MCF7, 72 h): 20.3 ± 0.2 µM | IC50 (AsPC-1; Homo sapiens, ASPC1, 72 h): 16.2 ± 2 µM | IC50 (EBC-1; Homo sapiens, EBC-1, 72 h): 8.7 ± 1.3 µM | IC50 (HT-29; Homo sapiens, HT-29, 72 h): 2.5 ± 0.7 µM | IC50 (NIH3T3; Mus musculus, NIH3T3, 72 h): 46.7 ± 3.2 µM | IC50 (Mia-Paca-2; Homo sapiens, MIA PaCa-2, 72 h): 31.3 ± 3.3 µM

CC(C)c1ccc(Cn2cc(COc3ccc(NC4=CC(=O)c5ccccc5C4=O)cc3)nn2)cc1 [Compound 4 g, 2-((4-((1-(4-Isopropylbenzyl)−1H-1,2,3-triazol-4-yl)methoxy)phenyl)amino) naphthalene-1,4-dione]
inhibition at 10 µM (MET): -11% | IC50 (MCF-7; Homo sapiens, MCF7, 72 h): 22.3 ± 3.8 µM | inhibition at 10 µM (KDR (VEGFR2)): -10% | IC50 (AsPC-1; Homo sapiens, ASPC1, 72 h): 12.8 ± 2.9 µM | IC50 (EBC-1; Homo sapiens, EBC-1, 72 h): 2 ± 0.5 µM | IC50 (HT-29; Homo sapiens, HT-29, 72 h): 4.9 ± 0.9 µM | inhibition at 10 µM (PDGFRA (PDGFRα)): 29% | IC50 (NIH3T3; Mus musculus, NIH3T3, 72 h): 24.5 ± 5.2 µM | inhibition at 10 µM (FLT3): -2% | IC50 (Mia-Paca-2; Homo sapiens, MIA PaCa-2, 72 h): 45 ± 8.2 µM | inhibition at 10 µM (CDK2/cyclin A): 1% | inhibition at 10 µM (FLT4 (VEGFR3)): 9% | inhibition at 10 µM (NTRK1 (TrkA)): 6%

N.N.[Cl][Pt][Cl] [Cisplatin, reference compound]
IC50 (MCF-7; [4]): 43.1 ± 1.9 µM | IC50 (AsPC-1; [4]): 5.4 ± 0.6 µM | IC50 (EBC-1; [4]): 24 ± 5.5 µM | IC50 (HT-29; [4]): 43.3 ± 17.3 µM | IC50 (NIH3T3; MTT, 72 h, non-cancer cell line, mean ± S.E.M.): 8.3 ± 1.4 µM | IC50 (Mia-Paca-2; [4]): 22.1 ± 6.2 µM

Cc1ccc(Cn2cc(COc3ccc(NC4=CC(=O)c5ccccc5C4=O)cc3)nn2)cc1 [Compound 4i, 2-((4-((1-(4-Methylbenzyl)−1H-1,2,3-triazol-4-yl)methoxy)phenyl)amino) naphthalene-1,4-dione]
inhibition at 10 µM (MET): 16% | IC50 (MCF-7; Homo sapiens, MCF7, 72 h): 13.9 ± 0.7 µM | inhibition at 10 µM (AXL): 8% | inhibition at 10 µM (KDR (VEGFR2)): 28% | inhibition at 10 µM (FLT1 (VEGFR1)): -17% | IC50 (AsPC-1; Homo sapiens, ASPC1, 72 h): 5.4 ± 0.9 µM | IC50 (EBC-1; Homo sapiens, EBC-1, 72 h): 2.5 ± 0.3 µM | inhibition at 10 µM (PDGFRB (PDGFRβ)): 5% | Effect on cell cycle distribution (S and G2/M phases) (AsPC-1 cells [2]): dose-dependently increased the number of cells in the S phase and simultaneously reduced the cells in G2/M phase | IC50 (HT-29; Homo sapiens, HT-29, 72 h): 1.3 ± 0.5 µM | Apoptosis induction (nuclear morphology) (AsPC-1 cells [3]): characteristic features of apoptosis including densely packed chromatin within the nucleus as well as nuclear fragmentation | IC50 (PDGFRA (PDGFRα)): 0.22 ± 0.009 µM | inhibition at 10 µM (PDGFRA (PDGFRα)): 74% | IC50 (NIH3T3; Mus musculus, NIH3T3, 72 h): 25.5 ± 6.1 µM | IC50 (Mia-Paca-2; Homo sapiens, MIA PaCa-2, 72 h): 20.6 ± 6.2 µM | IC50 (CDK2/cyclin A): 11.3 ± 0.477 µM | inhibition at 10 µM (CDK2/cyclin A): 51% | IC50 (FLT4 (VEGFR3)): 1.336 ± 0.006 µM | inhibition at 10 µM (FLT4 (VEGFR3)): 87% | inhibition at 10 µM (NTRK2 (TrkB)): 19%
